Assays:
[1] = tested on: promoter region of the gene encoding human apoAI; assay: Activity to enhance the production of human apoAI: apoAI promoter-luciferase reporter assay in HepG2 cells; format: cell-based; settings: minimum effective dose: concentration that intensified luciferase activity twice compared to control, 24 hours incubation, 0 to 10 μg/mL, read-out: MED
Procedure: Activity to Enhance the Production of Human apoAI
The promoter region of the gene encoding human apoAI was isolated and ligated upstream the structure gene of firefly luciferase to construct a reporter plasmid. The reporter plasmid and a marker plasmid conferring the neomycin resistance were co-infected to cell lines derived from human hepatoma, HepG2 cells, and the cell lines were incubated in a selection medium comprising DMEM medium containing 10% fetal calf serum supplemented with G418 (Final concentration: 0.7 mg/mL, Gibco) to give established strains that stably express the reporter molecule. The strains were seeded to a 96-well culture plates at a density of 50,000 cells per well, and incubated for 48 hours at 37° C. under 5% carbon dioxide. Then, a solution of the compounds according to the invention in DMSO was added to the wells at a final concentration of 0 to 10 μg/mL. After further incubation for 24 hours, the cells were added with a luciferase assay reagent (Piccagene LT 7.5 registered trade mark, Toyo Ink, KK), and the luciferase activity was determined using a luminometer (MicroBetaTM TRILUX, 1 sec/well, Wallac). The concentration of the compounds, which intensified the luciferase activity twice compared to that of control (DMSO without any compound of the invention added) was set as the minimal effective dose (MED).

For `c1ccc(-c2coc(-c3ccccc3)n2)cc1` [OX24-8], the EC (2-fold luciferase activity) [1] was 2.9 µM.
In the case of `COc1ccc(-c2nc(-c3ccccc3)cs2)cc1` [TZ24-5, 2-(4-Methoxyphenyl)-4-phenylthiazole], the EC (2-fold luciferase activity) [1] is reported as 3.7 µM.
In the case of `COc1ccc(-c2nc(-c3ccccc3)co2)cc1` [OX24-5], the EC (2-fold luciferase activity) [1] is reported as 0.32 µM.
Work on `Cc1cccc(-c2nnc(-c3cccc(C)c3)o2)c1` [Compound 134OD25-40, 2,5-Bis (3-tolyl)-1,3,4-oxadiazole] yielded a melting point of 82 to 83 °C and an EC (2-fold luciferase activity) [1] of 0.17 µM.
Work on `COc1ccc(-c2nc(-c3ccccc3)no2)cc1` [Compound 124OD35-12, 5-(4-Methoxyphenyl)-3-phenyl-1,2,4-oxadiazole] yielded an EC (2-fold luciferase activity) [1] of 0.07 µM.
For `COc1ccc(-n2nnc(-c3ccccc3)n2)cc1` [TZ-7], the EC (2-fold luciferase activity) [1] was 0.22 µM.
In the case of `Cc1ccc(-c2csc(-c3ccccc3)n2)cc1` [TZ24-3], the EC (2-fold luciferase activity) [1] is reported as 0.45 µM.
Compound `COc1cccc(-c2cc(-c3ccoc3)on2)c1` [IX35-9, 5-(Furan-3-yl)-3-(3-methoxyphenyl)-isoxazole] has a melting point of 36 to 37 °C and an EC (2-fold luciferase activity) [1] of 0.53 µM.
With `COc1ccc(-c2cc(-c3ccc(OC)cc3)n(C)n2)cc1` [PZ35-4, 3,5-Di(4-methoxyphenyl)-1-methylpyrazole] the EC (2-fold luciferase activity) [1] was 0.41 µM.
For `COc1cccc(-c2nnc(N3CCOCC3)s2)c1` [Compound 134TD25-1], the EC (2-fold luciferase activity) [1] was 0.89 µM.
In the case of `Clc1ccc(-c2nnn(-c3ccc(Cl)cc3)n2)cc1` [TZ-4], the EC (2-fold luciferase activity) [1] is reported as 0.53 µM.
`c1ccc(-c2nc(-c3ccc(-c4csnn4)cc3)no2)cc1` [Compound 124OD35-15] gave an EC (2-fold luciferase activity) [1] of 0.18 µM.
With `CC(C)Oc1cccc(-c2nnc(-c3ccoc3)o2)c1` [Compound 134OD25-34] the EC (2-fold luciferase activity) [1] was 1.5 µM.
Compound `c1ccc(-c2cc(-c3ccccn3)[nH]n2)nc1` [PZ35-5] has an EC (2-fold luciferase activity) [1] of 1.5 µM.
Compound `COc1cccc(-c2nnc(-c3ccoc3)o2)c1` [Compound 134OD25-32, 2-(3-Furyl)-5-(3-methoxyphenyl)-[1,3,4]-oxadiazole] has a melting point of 70 to 71 °C and an EC (2-fold luciferase activity) [1] of 2.8 µM.
`c1ccc(Nc2nc(-c3ccccc3)ns2)cc1` [Compound 124TD35-6] gave an EC (2-fold luciferase activity) [1] of 0.93 µM.
`c1ccc(-c2cc(-c3ccccc3)on2)cc1` [IX35-1] gave an EC (2-fold luciferase activity) [1] of 0.75 µM.
`C(=C\c1nnc(-c2ccccc2)o1)/c1ccco1` [Compound 134OD25-23, 2-[2-(2-Furyl)vinyl]-5-[1,3,4]-oxadiazole] showed a melting point of 127 to 130 °C and an EC (2-fold luciferase activity) [1] of 0.82 µM.
`Cc1ccc(-n2nnc(-c3ccccc3)n2)cc1` [TZ-3] gave an EC (2-fold luciferase activity) [1] of 0.2 µM.
With `c1ccc(-c2nnc(-c3cc4ccccc4o3)o2)cc1` [Compound 134OD25-28] the melting point was 148 to 149 °C and the EC (2-fold luciferase activity) [1] was 1.1 µM.
Work on `COc1ccc(-c2nc(-c3ccccn3)cs2)cc1` [TZ24-11] yielded an EC (2-fold luciferase activity) [1] of 1.2 µM.
Work on `Cc1ccc(-n2nnc(-c3ccc(Cl)cc3)n2)cc1` [TZ-1] yielded an EC (2-fold luciferase activity) [1] of 0.33 µM.
`CN(C)c1ccc(-c2nnc(-c3ccccc3)o2)cc1` [Compound 134OD25-15, 2-(4-Dimethylaminophenyl)-5-phenyl-1,3,4-oxadiazole] gave a melting point of 135 to 140 °C and an EC (2-fold luciferase activity) [1] of 0.27 µM.
In the case of `c1ccc(-c2ccc(-c3ccccc3)o2)cc1` [Compound F25-10], the EC (2-fold luciferase activity) [1] is reported as 2.5 µM.
Compound `Cc1ccc(-c2nnc(-c3ccco3)s2)cc1` [Compound 134TD25-5, 2-(2-Furyl)-5-p-tolyl-[1,3,4]-thiadiazole] has a melting point of 110 to 113 °C and an EC (2-fold luciferase activity) [1] of 0.98 µM.
`CSc1ccc(-c2nnc(-c3ccccc3)o2)cc1` [Compound 134OD25-14] showed a melting point of 120 to 122 °C and an EC (2-fold luciferase activity) [1] of 0.56 µM.
With `c1ccc(-c2cn(-c3ccccc3)nn2)cc1` [Compound 123TA14-2] the EC (2-fold luciferase activity) [1] was 0.59 µM.
`Cc1ccc(-c2nnn(-c3ccc(Cl)cc3)n2)cc1` [TZ-2] gave an EC (2-fold luciferase activity) [1] of 0.42 µM.
In the case of `c1ccc(-c2nnc(-c3ccccn3)o2)cc1` [Compound 134OD25-46, 2-(2-Pyridyl)-5-phenyl-1,3,4-oxadiazole], the EC (2-fold luciferase activity) [1] is reported as 0.37 µM.
`COc1ccc(-c2nc(-c3ccco3)cs2)cc1` [TZ24-6, 4-(2-Furyl)-2-(4-methoxyphenyl)thiazole] showed an EC (2-fold luciferase activity) [1] of 1.2 µM.
`CC(C)Oc1cccc(-c2nnc(-c3ccoc3)s2)c1` [Compound 134TD25-4] showed an EC (2-fold luciferase activity) [1] of 0.58 µM.
Compound `COc1ccc(-c2nc(-c3ccncc3)no2)cc1` [Compound 124OD35-13] has an EC (2-fold luciferase activity) [1] of 0.7 µM.

— patent US20040248950A1, “Apo ai expression accelerating agent” (priority 2004, published 2004)
